Measurements: patent US20220235011A1, “PHTHALAZINONE COMPOUNDS AND USE THEREOF” (ST PHARM CO., LTD., priority 2019, published 2022)

Target: T1, Sirt6 (Homo sapiens, UniProt Q8N6T7)
T1 construct: purchased CycLex CY-1156V2
Assay: Measurement of Sirt6 Activity (CycLex Sirt6 Deacetylase Fluorometric Assay Kit)
Type: biochemical
Conditions: compound at 10 μM; fluorescence relative to the group without compound treatment (positive control group)
How it was run: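 Recombinant Sirt6 with fluoro-labelled acetyl-lysine peptide, NAD and lysylendopeptidase developer, compound added from 10× stock in PBS; 1 h at room temperature. Fluorescence read at ex 490/em 530 nm; activation expressed as fluorescence ratio relative to enzyme without compound.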

T1 sequence (Q8N6T7 whole entry): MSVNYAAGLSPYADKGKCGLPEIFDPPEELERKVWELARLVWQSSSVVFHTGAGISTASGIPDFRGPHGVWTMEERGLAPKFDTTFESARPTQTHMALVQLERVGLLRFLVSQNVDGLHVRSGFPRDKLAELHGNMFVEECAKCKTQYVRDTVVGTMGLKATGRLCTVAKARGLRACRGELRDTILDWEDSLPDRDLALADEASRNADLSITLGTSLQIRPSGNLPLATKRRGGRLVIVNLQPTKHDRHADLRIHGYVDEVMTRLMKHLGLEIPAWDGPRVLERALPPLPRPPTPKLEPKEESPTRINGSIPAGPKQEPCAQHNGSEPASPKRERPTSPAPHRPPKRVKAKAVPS

SMILES | Sirt6 Activity (% activity, 10 μM)
CCS(=O)(=O)c1cccc(-c2nn(-c3ccccc3F)c(=O)c3ccccc23)c1 [Example 98, 4-(3-(Ethylsulfonyl)phenyl)-2-(2-fluorophenyl)phthalazin-1(2H)-one] | 264 % activity
CNS(=O)(=O)c1cccc(-c2nn(-c3ccccc3F)c(=O)c3ccccc23)c1 [Example 99, 3-(3-(2-Fluorophenyl)-4-oxo-3,4-dihydrophthalazin-1-yl)-N-methylbenzenesulfonamide] | 259 % activity
CCNS(=O)(=O)c1cccc(-c2nn(-c3ccccc3F)c(=O)c3ccccc23)c1 [Example 100, N-Ethyl-3-(3-(2-fluorophenyl)-4-oxo-3,4-dihydrophthalazin-1-yl)benzenesulfonamide] | 196 % activity
CN(C)S(=O)(=O)c1cccc(-c2nn(-c3ccccc3F)c(=O)c3ccccc23)c1 [Example 101, 3-(3-(2-Fluorophenyl)-4-oxo-3,4-dihydrophthalazin-1-yl)-N,N-dimethylbenzene Sulfonamide] | 153 % activity
C/[N+]([O-])=C/c1cccc(-c2nn(-c3c(F)cccc3F)c(=O)c3ccccc23)c1 [Example 102, (Z)-1-(3-(3-(2,6-Difluorophenyl)-4-oxo-3,4-dihydrophthalazin-1-yl)phenyl)-N-methylmethanimine Oxide] | 206 % activity
CC(C)/[N+]([O-])=C/c1cccc(-c2nn(-c3c(F)cccc3F)c(=O)c3ccccc23)c1 [Example 103, (Z)-1-(3-(3-(2,6-Difluorophenyl)-4-oxo-3,4-dihydrophthalazin-1-yl)phenyl)-N-isopropylmethanimine Oxide] | 324 % activity
CC(C)(C)/[N+]([O-])=C/c1cccc(-c2nn(-c3c(F)cccc3F)c(=O)c3ccccc23)c1 [Example 104, (Z)—N-tert-Butyl-1-(3-(3-(2,6-difluorophenyl)-4-oxo-3,4-dihydrophthalazin-1-yl)phenyl)methanimine Oxide] | 284 % activity
CS(=O)(=O)c1cccc(-c2nn(-c3c(F)cccc3F)c(=O)c3ccccc23)c1 [Example 105, 2-(2,6-Difluorophenyl)-4-(3-(methylsulfonyl)phenyl)phthalazin-1 (2H)-one] | 226 % activity
CCS(=O)(=O)c1cccc(-c2nn(-c3c(F)cccc3F)c(=O)c3ccccc23)c1 [Example 106, 2-(2,6-Difluorophenyl)-4-(3-(ethylsulfonyl)phenyl)phthalazin-1(2H)-one] | 141 % activity
CNS(=O)(=O)c1cccc(-c2nn(-c3c(F)cccc3F)c(=O)c3ccccc23)c1 [Example 107, 3-(3-(2,6-Difluorophenyl)-4-oxo-3,4-dihydrophthalazin-1-yl)-N-methylbenzenesulfonamide] | 233 % activity
CCNS(=O)(=O)c1cccc(-c2nn(-c3c(F)cccc3F)c(=O)c3ccccc23)c1 [Example 108, 3-(3-(2,6-Difluorophenyl)-4-oxo-3,4-dihydrophthalazin-1-yl)-N-ethylbenzenesulfonamide] | 209 % activity
CN(C)S(=O)(=O)c1cccc(-c2nn(-c3c(F)cccc3F)c(=O)c3ccccc23)c1 [Example 109, 3-(3-(2,6-Difluorophenyl)-4-oxo-3,4-dihydrophthalazin-1-yl)-N,N-dimethylbenzenesulfonamide] | 188 % activity
CS(=O)(=O)c1cccc(-c2nn(-c3ccccc3)c(=O)c3ccc(F)cc23)c1 [Example 110, 6-Fluoro-4-(3-(methylsulfonyl)phenyl)-2-phenylphthalazin-1(2H)-one] | 129 % activity
CNS(=O)(=O)c1cccc(-c2nn(-c3ccccc3)c(=O)c3ccc(F)cc23)c1 [Example 111, 3-(7-Fluoro-4-oxo-3-phenyl-3,4-dihydrophthalazin-1-yl)-N-methylbenzenesulfonamide] | 126 % activity
CS(=O)(=O)c1cccc(-c2nn(-c3ccccc3)c(=O)c3cc(F)ccc23)c1 [Example 112, 7-Fluoro-4-(3-(methylsulfonyl)phenyl)-2-phenylphthalazin-1(2H)-one] | 103 % activity
CNS(=O)(=O)c1cccc(-c2nn(-c3ccccc3)c(=O)c3cc(F)ccc23)c1 [Example 113, 3-(6-Fluoro-4-oxo-3-phenyl-3,4-dihydrophthalazin-1-yl)-N-methylbenzenesulfonamide] | 116 % activity
O=c1c2ccccc2c(-c2ccc[n+]([O-])c2)nn1-c1ccc(F)cc1 [Example 114, 3-(3-(4-Fluorophenyl)-4-oxo-3,4-dihydrophthalazin-1-yl)pyridine 1-oxide] | 226 % activity
O=c1c2ccccc2c(-c2cccnc2)nn1-c1ccc(F)cc1F [Example 115, 2-(2,4-Difluorophenyl)-4-(pyridin-3-yl)phthalazin-1(2H)-one] | 405 % activity

SMILES | Sirt6 Activity (% activity, 10 μM)
O=c1c2ccccc2c(-c2cccnc2)nn1-c1c(F)cccc1F [Example 116, 2-(2,6-Difluorophenyl)-4-(pyridin-3-yl)phthalazin-1(2H)-one] | 227 % activity
O=c1c2ccccc2c(-c2ccc[n+]([O-])c2)nn1-c1ccc(F)cc1F [Example 117, 3-(3-(2,4-Difluorophenyl)-4-oxo-3,4-dihydrophthalazin-1-yl)pyridine 1-oxide] | 318 % activity
O=c1c2ccccc2c(-c2ccc[n+]([O-])c2)nn1-c1c(F)cccc1F [Example 118, 3-(3-(2,6-Difluorophenyl)-4-oxo-3,4-dihydrophthalazin-1-yl)pyridine 1-oxide] | 231 % activity
CS(=O)(=O)c1cccc(-c2nn(-c3ccc(F)cc3F)c(=O)c3ccc(F)cc23)c1 [Example 119, 2-(2,4-Difluorophenyl)-6-fluoro-4-(3-(methylsulfonyl)phenyl)phthalazin-1(2H)-one] | 166 % activity
CS(=O)(=O)c1cccc(-c2nn(-c3ccc(F)cc3F)c(=O)c3cc(F)ccc23)c1 [Example 120, 2-(2,4-Difluorophenyl)-7-fluoro-4-(3-(methylsulfonyl)phenyl)phthalazin-1(2H)-one] | 178 % activity
CNS(=O)(=O)c1cccc(-c2nn(-c3ccc(F)cc3F)c(=O)c3ccc(F)cc23)c1 [Example 121, 3-(3-(2,4-Difluorophenyl)-7-fluoro-4-oxo-3,4-dihydrophthalazin-1-yl)-N-methylbenzenesulfonamide] | 157 % activity
CNS(=O)(=O)c1cccc(-c2nn(-c3ccc(F)cc3F)c(=O)c3cc(F)ccc23)c1 [Example 122, 3-(3-(2,4-Difluorophenyl)-6-fluoro-4-oxo-3,4-dihydrophthalazin-1-yl)-N-methylbenzenesulfonamide] | 177 % activity
CCS(=O)(=O)c1cccc(-c2nn(-c3ccc(F)cc3F)c(=O)c3ccc(F)cc23)c1 [Example 123, 2-(2,4-Difluorophenyl)-4-(3-(ethylsulfonyl)phenyl)-6-fluorophthalazin-1(2H)-one] | 253 % activity
CCNS(=O)(=O)c1cccc(-c2nn(-c3ccc(F)cc3F)c(=O)c3ccc(F)cc23)c1 [Example 124, 3-(3-(2,4-Difluorophenyl)-7-fluoro-4-oxo-3,4-dihydrophthalazin-1-yl)-N-ethylbenzenesulfonamide] | 146 % activity
CN(C)S(=O)(=O)c1cccc(-c2nn(-c3ccc(F)cc3F)c(=O)c3ccc(F)cc23)c1 [Example 125, 3-(3-(2,4-Difluorophenyl)-7-fluoro-4-oxo-3,4-dihydrophthalazin-1-yl)-N,N-dimethylbenzenesulfonamide] | 172 % activity
NS(=O)(=O)c1cccc(-c2nn(-c3ccc(F)cc3F)c(=O)c3ccccc23)c1 [Example 126, 3-(3-(2,4-Difluorophenyl)-4-oxo-3,4-dihydrophthalazin-1-yl)benzenesulfonamide] | 185 % activity
O=c1c2ccccc2c(-c2cccc(S(=O)(=O)NCCO)c2)nn1-c1ccc(F)cc1F [Example 127, 3-(3-(2,4-Difluorophenyl)-4-oxo-3,4-dihydrophthalazin-1-yl)-N-(2-hydroxyethyl)benzene Sulfonamide] | 321 % activity
CCS(=O)(=O)Nc1cccc(-c2nn(C3CCCCC3)c(=O)c3ccccc23)c1 [Example 128, N-(3-(3-Cyclohexyl-4-oxo-3,4-dihydrophthalazin-1-yl)phenyl)ethanesulfonamide] | 177.53 % activity
CCS(=O)(=O)Nc1cccc(-c2nn(C3CCN(C)CC3)c(=O)c3ccccc23)c1 [Example 129, N-(3-(3-(1-Methylpiperidin-4-yl)-4-oxo-3,4-dihydrophthalazin-1-yl)phenyl)ethane Sulfonamide] | 104.16 % activity
N#Cc1cccc(-c2nn(-c3ccc(F)cc3)c(=O)c3ccccc23)c1 [Example 130, 3-(3-(4-Fluorophenyl)-4-oxo-3,4-dihydrophthalazin-1-yl)benzonitrile] | 120.16 % activity
N/C(=N/O)c1cccc(-c2nn(-c3ccc(F)cc3)c(=O)c3ccccc23)c1 [Example 131, (E)-3-(3-(4-Fluorophenyl)-4-oxo-3,4-dihydrophthalazin-1-yl)-N′-hydroxybenzimidamide] | 102.08 % activity
CCS(=O)(=O)Nc1cccc(-c2nn(C(C)C)c(=O)c3ccccc23)c1 [Example 132, N-(3-(3-Isopropyl-4-oxo-3,4-dihydrophthalazin-1-yl)phenyl)ethanesulfonamide] | 107.58 % activity
CCS(=O)(=O)Nc1cccc(-c2nn(-c3cnn(C)c3)c(=O)c3ccccc23)c1 [Example 133, N-(3-(3-(1-Methyl-1H-pyrazol-4-yl)-4-oxo-3,4-dihydrophthalazin-1-yl)phenyl)ethanesulfonamide] | 118.8 % activity
